Source: patent publication US9546150B2, “Substituted quinazolin-4-ones for inhibiting ubiquitin specific protease 7” (HYBRIGENICS SA, priority 2011, dated 2017)

Assays:
Assay type in all cases: biochemical
[1] = target: T1, USP5 (Homo sapiens, UniProt P45974); experiment: USP5 activity assay, Ub-AMC substrate; conditions: UbAMC substrate 300 nM, USP5 300 pM
T1 sequence (P45974 1-858): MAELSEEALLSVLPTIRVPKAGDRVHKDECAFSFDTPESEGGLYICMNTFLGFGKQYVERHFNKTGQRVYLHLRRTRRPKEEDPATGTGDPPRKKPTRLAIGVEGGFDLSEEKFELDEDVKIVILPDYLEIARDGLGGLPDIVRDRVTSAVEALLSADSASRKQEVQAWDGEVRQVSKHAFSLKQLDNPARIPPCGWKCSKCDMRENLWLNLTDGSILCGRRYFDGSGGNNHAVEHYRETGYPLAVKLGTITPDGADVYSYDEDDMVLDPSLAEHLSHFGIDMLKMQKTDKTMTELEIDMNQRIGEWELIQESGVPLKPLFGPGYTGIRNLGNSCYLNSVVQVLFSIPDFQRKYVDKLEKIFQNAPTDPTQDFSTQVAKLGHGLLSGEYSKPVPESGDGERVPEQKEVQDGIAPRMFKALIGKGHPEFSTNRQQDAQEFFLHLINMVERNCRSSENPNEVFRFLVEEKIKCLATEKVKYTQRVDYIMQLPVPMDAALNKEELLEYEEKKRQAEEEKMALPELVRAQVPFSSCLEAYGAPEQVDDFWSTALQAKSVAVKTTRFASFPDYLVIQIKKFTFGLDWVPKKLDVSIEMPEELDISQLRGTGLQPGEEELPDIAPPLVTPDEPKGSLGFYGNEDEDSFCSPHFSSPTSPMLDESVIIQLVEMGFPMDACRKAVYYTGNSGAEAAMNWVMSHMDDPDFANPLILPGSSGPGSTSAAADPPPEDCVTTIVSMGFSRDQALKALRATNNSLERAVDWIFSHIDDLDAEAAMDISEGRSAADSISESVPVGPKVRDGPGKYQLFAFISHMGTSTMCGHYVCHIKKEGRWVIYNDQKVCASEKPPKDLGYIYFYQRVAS
Method: USP5 was diluted in USP buffer (50 mM Tris HCl; 0.5 mM EDTA; 5 mM DTT; 0.01% Triton X-100; Bovine Serum Albumin 0.05 mg·ml^−1 pH 7.6). Compounds stocks (100 mM) were stored at −20° C. in DMSO.
Reactions were performed as duplicates in Black 384 well plates (small volume microplates; Greiner; 10 μl final reaction volume). The substrate concentration for USP5 was 300 nM Ub-AMC (Boston Biochem). The concentrations of the enzyme (USP5) in specificity assays was 300 pM. The concentrations were determined in order to perform specificity assays under initial velocities at fixed substrate concentration. Compounds were pre-incubated with enzymes for 30 minutes at 25° C. Reactions were initiated by addition of substrate to the plates containing the enzymes (+/− compounds) diluted in assay buffer. Reactions were incubated for 60 minutes at 37° C. Reactions were stopped by adding acetic acid (100 mM final). Readings were performed on a Pherastar Fluorescent Reader (BMG). λ Emission 380 nm; λ Excitation=460 nm.

[2] = target: USP7 (Homo sapiens, UniProt Q93009); experiment: GST-Ub52-Flag HTRF deubiquitinating enzyme assay, USP7; parameters: Full-length wild-type human USP7 and its catalytic mutant; His tag (pFastBac-HT vector) (N); made in house; host or cells: Spodoptera frugiperda Sf9 (or High Five) insect cells, baculovirus; conditions: GST-Ub52-Flag substrate, USP7 200 pM
Sequence of USP7 (Q93009 whole entry): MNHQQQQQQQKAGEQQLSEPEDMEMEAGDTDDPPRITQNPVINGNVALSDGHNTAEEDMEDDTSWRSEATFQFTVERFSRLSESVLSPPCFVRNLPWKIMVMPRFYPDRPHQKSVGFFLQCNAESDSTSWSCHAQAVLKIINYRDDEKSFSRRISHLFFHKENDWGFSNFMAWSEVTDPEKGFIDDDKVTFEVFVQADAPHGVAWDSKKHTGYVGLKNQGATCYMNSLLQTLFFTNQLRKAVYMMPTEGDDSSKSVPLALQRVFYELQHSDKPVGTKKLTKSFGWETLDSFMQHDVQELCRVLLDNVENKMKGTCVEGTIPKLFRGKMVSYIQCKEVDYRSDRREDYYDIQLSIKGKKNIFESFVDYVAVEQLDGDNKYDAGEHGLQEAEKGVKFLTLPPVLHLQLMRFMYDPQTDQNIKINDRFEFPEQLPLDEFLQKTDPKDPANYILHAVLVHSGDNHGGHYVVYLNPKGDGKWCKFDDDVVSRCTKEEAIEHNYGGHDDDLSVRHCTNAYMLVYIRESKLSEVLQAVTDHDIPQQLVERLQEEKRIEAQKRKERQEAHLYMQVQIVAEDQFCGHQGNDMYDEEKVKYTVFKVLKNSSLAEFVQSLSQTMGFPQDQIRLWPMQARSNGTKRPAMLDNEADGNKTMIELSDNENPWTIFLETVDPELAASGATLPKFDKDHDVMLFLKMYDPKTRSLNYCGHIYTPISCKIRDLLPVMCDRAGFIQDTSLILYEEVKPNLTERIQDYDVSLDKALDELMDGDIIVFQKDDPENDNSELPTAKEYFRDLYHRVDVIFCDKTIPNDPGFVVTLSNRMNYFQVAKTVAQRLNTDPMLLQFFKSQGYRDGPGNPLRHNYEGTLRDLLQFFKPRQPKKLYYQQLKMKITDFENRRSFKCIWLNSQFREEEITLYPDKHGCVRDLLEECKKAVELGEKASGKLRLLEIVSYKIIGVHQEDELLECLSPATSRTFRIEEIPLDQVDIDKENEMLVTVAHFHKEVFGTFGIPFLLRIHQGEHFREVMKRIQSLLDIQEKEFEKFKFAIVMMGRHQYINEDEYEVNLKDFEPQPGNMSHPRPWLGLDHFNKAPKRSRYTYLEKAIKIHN
Method: Bacmid DNA was prepared by an alkaline lysis procedure. The integrity of the bacmid minipreps and their orientation were checked by PCR, using generic and specific primers. Sf9 insect cells were cultured in InsectXpress medium (Cambrex) at 27° C. and transfected with the corresponding bacmid, using GeneShuttle 40 (Q-BIOgen). Viruses were recovered in the supernatant 72 h after transfection. Viruses were amplified by infecting insect cells (Sf9 or High Five cells; invitrogen) in 50 ml InsectXpress medium in a 150 cm^2 cell culture flask with 500 μl of the supernatant from transfected Sf9 cells. Following the second round of amplification, infected cells were recovered by rapid SDS lysis, boiled for 5 min at 100° C., sonicated briefly and centrifuged for 20 min at 14,000 g.
Flow Through was recovered.

[3] = target: T2, UCH-L1 (Homo sapiens, UniProt P09936); experiment: UCH-L1 activity assay, Ub-AMC substrate; conditions: UbAMC substrate 300 nM, UCH-L1 2.5 nM
T2 sequence (P09936 1-223): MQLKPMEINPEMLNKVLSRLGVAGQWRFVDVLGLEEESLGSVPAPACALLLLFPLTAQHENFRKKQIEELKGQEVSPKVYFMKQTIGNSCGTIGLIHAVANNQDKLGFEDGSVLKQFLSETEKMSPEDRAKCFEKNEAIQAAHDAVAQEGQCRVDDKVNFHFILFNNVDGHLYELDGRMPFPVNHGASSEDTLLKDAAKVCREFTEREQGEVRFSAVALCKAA
Method: UCH-L1 was diluted in USP buffer (50 mM Tris HCl; 0.5 mM EDTA; 5 mM DTT (Dithiothreitol); 0.01% Triton X-100; Bovine Serum Albumin 0.05 mg·ml^−1 pH7.6). Compounds stocks (100 mM) were stored at −20° C. in DMSO. Compounds were tested at different concentrations: from 200 μM to 91 nM.
Reactions were performed as duplicates in Black 384 well plates (small volume microplates; Greiner; 10 μl final reaction volume). The substrate concentration for UCH-L1 was 300 nM Ub-AMC (Boston Biochem). The concentration of the enzyme (UCH-L1) in specificity assays was 2.5 nM. The concentrations were determined in order to perform specificity assays under initial velocities at fixed substrate concentration. Compounds were pre-incubated with enzymes for 30 minutes at 25° C. Reactions were initiated by addition of substrate to the plates containing the enzymes (+/− compounds) diluted in assay buffer. Reactions were incubated for 60 minutes at 37° C. Reactions were stopped by adding acetic acid (100 mM final). Readings were performed on a Pherastar Fluorescent Reader (BMG). λ Emission 380 nm; λ Excitation=460 nm.

| Structure (SMILES) | IC50 [1] [µM] | IC50 [2] [µM] | IC50 [3] [µM] |
| --- | --- | --- | --- |
| O=C(CCc1ccccc1)N1CCC(O)(Cn2cnc3ccccc3c2=O)CC1 [Example 1, 3-{[4-hydroxy-1-(3-phenylpropanoyl)piperidin-4-yl]methyl}-3,4-dihydroquinazolin-4-one] | > 200 | 74 | > 200 |
| O=C(CCc1ccccc1)N1CCC(O)(Cn2cnc3cc(Cl)ccc3c2=O)CC1 [Example 2, 7-chloro-3-{[4-hydroxy-1-(3-phenylpropanoyl)piperidin-4-yl]methyl}-3,4-dihydroquinazolin-4-one] | – | 77 | > 200 |
| O=C(CCC1CCCC1)N1CCC(O)(Cn2cnc3ccccc3c2=O)CC1 [Example 3, 3-{[1-(3-cyclopentylpropanoyl)-4-hydroxypiperidin-4-yl]methyl}-3,4-dihydroquinazolin-4-one] | > 200 | 175 | > 200 |
| O=C(CCC1CCCC1)N1CCC(O)(Cn2cnc3cc(Cl)ccc3c2=O)CC1 [Example 4, 7-chloro-3-{[1-(3-cyclopentylpropanoyl)-4-hydroxypiperidin-4-yl]methyl}-3,4-dihydroquinazolin-4-one] | > 200 | 173 | > 200 |
| CC(Cc1cccs1)C(=O)N1CCC(O)(Cn2cnc3ccccc3c2=O)CC1 (stereo not shown) [Example 5, 3-({4-hydroxy-1-[2-methyl-3-(thiophen-2-yl)propanoyl]piperidin-4-yl}methyl)-3,4-dihydroquinazolin-4-one] | > 200 | 36 | > 200 |
| CC(C)C(=O)N1CCC(O)(Cn2cnc3ccccc3c2=O)CC1 [Example 6, 3-{[4-hydroxy-1-(2-methylpropanoyl)piperidin-4-yl]methyl}-3,4-dihydroquinazolin-4-one] | > 200 | > 200 | > 200 |
| COc1cc2ncn(CC3(O)CCN(C(=O)C(C)C)CC3)c(=O)c2cc1OC [Example 7, 3-{[4-hydroxy-1-(2-methylpropanoyl)piperidin-4-yl]methyl}-6,7-dimethoxy-3,4-dihydroquinazolin-4-one] | > 200 | 174 | > 200 |
| CCC(CC)C(=O)N1CCC(O)(Cn2cnc3cc(Cl)ccc3c2=O)CC1 [Example 9, 7-chloro-3-{[1-(2-ethylbutanoyl)-4-hydroxypiperidin-4-yl]methyl}-3,4-dihydroquinazolin-4-one] | > 200 | 214 | > 200 |
| COc1ccccc1CCC(=O)N1CCC(O)(Cn2cnc3ccccc3c2=O)CC1 [Example 10, 3-({4-hydroxy-1-[3-(2-methoxyphenyl)propanoyl]piperidin-4-yl}methyl)-3,4-dihydroquinazolin-4-one] | > 200 | > 200 | > 200 |
| CC(Cc1cccs1)C(=O)N1CCC(O)(Cn2cnc3cc(Cl)ccc3c2=O)CC1 (stereo not shown) [Example 11, 7-chloro-3-({4-hydroxy-1-[2-methyl-3-(thiophen-2-yl)propanoyl]piperidin-4-yl}methyl)-3,4-dihydroquinazolin-4-one] | > 200 | 33 | > 200 |
| O=C(CCc1cccs1)N1CCC(O)(Cn2cnc3ccccc3c2=O)CC1 [Example 12, 3-({4-hydroxy-1-[3-(thiophen-2-yl)propanoyl]piperidin-4-yl}methyl)-3,4-dihydroquinazolin-4-one] | > 200 | 42 | > 200 |
| CC(Cc1ccccc1)C(=O)N1CCC(O)(Cn2cnc3ccccc3c2=O)CC1 (stereo not shown) [Example 13, 3-{[1-(2-benzylpropanoyl)-4-hydroxypiperidin-4-yl]methyl}-3,4-dihydroquinazolin-4-one] | > 200 | – | > 200 |
| CC(Cc1ccccc1)C(=O)N1CCC(O)(Cn2cnc3cc(Cl)ccc3c2=O)CC1 (stereo not shown) [Example 14, 3-{[1-(2-benzylpropanoyl)-4-hydroxypiperidin-4-yl]methyl}-7-chloro-3,4-dihydroquinazolin-4-one] | > 200 | 29 | > 200 |
